# In patent publication US6335398B1, “Super absorbent polymer composition” (priority 1994, dated 2002):
# Experiments:
# [1] = pKCu, stability constant of the Cu2+ chelate by Cu ion electrode method; format: physicochemical
# Protocol: The pKCu was obtained by the following procedures. A Cu ion electrode method was used (Orion pH/ion analyzer; Cu ion electrode). A 0.1M triethanolamine-HCl (pH 8) buffer solution was used.
# First of all, standard copper ion buffer solutions [400, 320, 240, 160 or 80 ppm (reduced to Cu^2+)] were prepared using CuCl2.2H2O, and a calibration curve was prepared using a copper ion electrode.
# Then, a sample weighing 0.1 g was dissolved in 100 ml of a buffer solution in a measuring flask. To the sample solution was added dropwise a 0.05M CuCl2.2H2O buffer solution (pH 8) from a burette in 0.6 ml portions, and the potential of the Cu ion electrode was measured. The titration was conducted until the potential exceeded the level corresponding to 400 ppm (reduced to Cu^2+). Blank measurements were also carried out. A free Cu ion concentration was calculated from the potential, and the calculated value was corrected for the change in amount of the liquid of the measurement system due to the titration. Assuming that addition of an equimolar amount of Cu to a sample produces a 1:1 (by mole) complex, pKCu can be obtained from formula 1:
# Stability Constant KML=[ML]/([M][L])
# [ML]: Concentration of metal/chelating agent complex
# [M]: Concentration of free metal ion
# [L]: Concentration of free chelating agent
# [2] = Solubility of copper salt of chelating compound in physiological saline; settings: stirred 30 minutes
# [3] = log stability constant with Cu2+, 25° C., 0.1M triethanolamine-HCl pH 8
Compound,pKCu (25° C.) ([1]; pH 8),"pKCu (25° C.) [1, 3]",Solubility of Cu Salt (25° C.) [2]
"O=C(O)CN(CCN(CC(=O)O)CC(=O)O)CC(=O)O [EDTA, ethylenediaminetetraacetic acid, reference compound]",18.79,,
"O=P(O)(O)OP(=O)(O)OP(=O)(O)O [Sodium Tripolyphosphate, reference compound]",,6.8,1 wt %
"O=C([O-])CC(O)(CC(=O)[O-])C(=O)[O-].[Na+].[Na+].[Na+] [Trisodium Citrate, reference compound]",,5.2,
"CC(C)c1cccc(O)c(=O)c1 [β-Thujaplicin, β-thujaplicin]",,7.9,<0.0001 wt %
"CC(C)c1ccc(O)c(=O)cc1 [γ-Thujaplicin, γ-thujaplicin]",,7.9,
Monooleyl Citrate,,6.4,
Monooleyl Phosphate,,3.3,
